Common to all, as to type: functional
The target of test [1] is T1, DNA repair and recombination protein RAD54-like (Homo sapiens, UniProt Q92698).
T1 sequence (Q92698 whole entry): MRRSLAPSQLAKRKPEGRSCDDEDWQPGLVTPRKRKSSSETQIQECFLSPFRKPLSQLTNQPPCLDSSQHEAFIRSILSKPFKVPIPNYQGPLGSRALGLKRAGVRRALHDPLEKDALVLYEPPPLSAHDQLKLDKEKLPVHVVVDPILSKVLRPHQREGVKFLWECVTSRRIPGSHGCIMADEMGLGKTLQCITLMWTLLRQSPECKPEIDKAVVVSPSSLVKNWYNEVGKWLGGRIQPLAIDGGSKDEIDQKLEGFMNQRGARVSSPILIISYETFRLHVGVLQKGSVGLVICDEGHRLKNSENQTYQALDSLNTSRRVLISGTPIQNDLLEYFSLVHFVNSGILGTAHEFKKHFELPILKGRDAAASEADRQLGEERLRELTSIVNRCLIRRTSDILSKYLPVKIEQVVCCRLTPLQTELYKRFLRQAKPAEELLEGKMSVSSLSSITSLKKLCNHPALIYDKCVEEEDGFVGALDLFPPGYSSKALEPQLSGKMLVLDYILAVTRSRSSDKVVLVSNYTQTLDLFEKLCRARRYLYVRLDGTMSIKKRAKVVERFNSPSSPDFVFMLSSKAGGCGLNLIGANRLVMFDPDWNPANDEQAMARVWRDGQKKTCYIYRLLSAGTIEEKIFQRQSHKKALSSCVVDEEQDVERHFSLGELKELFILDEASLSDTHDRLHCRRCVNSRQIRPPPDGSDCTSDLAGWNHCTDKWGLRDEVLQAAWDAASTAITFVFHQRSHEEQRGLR
Put plainly: RAD54 Holliday junction migration blockers – biochemical, fluorescence, cherry-picked samples, dose series, confirmation (AID 651657).

In a further test the test system is Vero. Put plainly: viability loss in Vero cells – cell-based, plate reader, cherry-pick samples, cytotoxicity control, dose response (AID 687020). Conditions: Chlorocebus sabaeus.
Test [2] can be described thus: Counterscreen for IDE inhibitors: Luminescence-based cell-based high throughput dose response assay to identify compounds that are cytotoxic to HEK cells. [Related pubchem assays: 434962 (Primary screen (IDE inhibitors in singlicate)), 449730 (Counterscreen (Cytotoxicity in triplicate)), 435028 (Confirmation (IDE inhibitors in triplicate)) …. As to conditions: HEK293. (The purpose of a counterscreen is to sort out artefacts and off-target activity.)

Test [3] deals with T2, Beta-2 adrenergic receptor (Homo sapiens, UniProt P07550). The test can be described thus: ADRB2 activation measured by internalization – cell-based, FAP fluorogen, flow cytometry, cherry pick 1, dose response (AID 588763). Background: Flow cytometry measures light scatter and fluorescence of single cells or particles in a stream.
The target in another test is T3, Insulin-degrading enzyme (Homo sapiens, UniProt P14735).
T3 sequence (P14735 whole entry): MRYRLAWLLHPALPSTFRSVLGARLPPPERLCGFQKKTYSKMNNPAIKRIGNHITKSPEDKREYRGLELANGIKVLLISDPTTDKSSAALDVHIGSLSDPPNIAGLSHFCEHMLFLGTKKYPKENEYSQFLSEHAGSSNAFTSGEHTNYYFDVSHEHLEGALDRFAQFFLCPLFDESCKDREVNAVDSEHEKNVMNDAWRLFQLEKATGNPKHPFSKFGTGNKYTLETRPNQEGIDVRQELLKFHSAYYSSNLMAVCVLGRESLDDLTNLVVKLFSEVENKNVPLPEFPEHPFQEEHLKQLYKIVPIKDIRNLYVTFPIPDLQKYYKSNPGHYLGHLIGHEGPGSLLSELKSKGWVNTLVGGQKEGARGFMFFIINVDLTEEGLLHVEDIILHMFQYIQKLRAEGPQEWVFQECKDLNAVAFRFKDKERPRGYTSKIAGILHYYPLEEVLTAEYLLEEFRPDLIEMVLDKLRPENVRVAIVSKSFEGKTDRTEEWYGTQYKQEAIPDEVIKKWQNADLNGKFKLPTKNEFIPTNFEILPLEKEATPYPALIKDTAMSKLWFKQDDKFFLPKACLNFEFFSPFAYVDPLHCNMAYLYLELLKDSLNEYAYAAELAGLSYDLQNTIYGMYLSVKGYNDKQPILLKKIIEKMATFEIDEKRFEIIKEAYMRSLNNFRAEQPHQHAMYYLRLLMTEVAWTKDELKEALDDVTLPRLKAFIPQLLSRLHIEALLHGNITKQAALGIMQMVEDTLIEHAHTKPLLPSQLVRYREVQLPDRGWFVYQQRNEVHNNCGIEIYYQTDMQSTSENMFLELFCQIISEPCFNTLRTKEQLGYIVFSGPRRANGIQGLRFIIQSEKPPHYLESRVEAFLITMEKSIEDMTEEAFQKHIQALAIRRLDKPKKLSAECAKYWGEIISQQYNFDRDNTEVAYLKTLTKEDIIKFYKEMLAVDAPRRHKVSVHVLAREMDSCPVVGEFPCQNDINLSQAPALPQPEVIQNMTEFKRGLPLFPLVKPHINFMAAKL
Put plainly: Dose Response: Fluorescence polarization-based cell-based high throughput dose response assay for inhibitors of insulin-degrading enzyme (IDE). [Related pubchem assays: 434962 (Primary screen (IDE inhibitors in singlicate)), 449730 (Counterscreen (Cytotoxicity in triplicate)), 435028 (Confirmation (IDE inhibitors in triplicate)), 434984 (Summary …. Background: In fluorescence polarisation assays a small probe gives low polarisation when free and higher when bound to something large.

Test [4] deals with T2, Beta-2 adrenergic receptor. The test can be described thus: Dose response for HTS for Beta-2AR agonists via FAP method from Powderset3.

Structures are written as SMILES. Activity calls are given as the source filed them.

T2 sequence (P07550 whole entry): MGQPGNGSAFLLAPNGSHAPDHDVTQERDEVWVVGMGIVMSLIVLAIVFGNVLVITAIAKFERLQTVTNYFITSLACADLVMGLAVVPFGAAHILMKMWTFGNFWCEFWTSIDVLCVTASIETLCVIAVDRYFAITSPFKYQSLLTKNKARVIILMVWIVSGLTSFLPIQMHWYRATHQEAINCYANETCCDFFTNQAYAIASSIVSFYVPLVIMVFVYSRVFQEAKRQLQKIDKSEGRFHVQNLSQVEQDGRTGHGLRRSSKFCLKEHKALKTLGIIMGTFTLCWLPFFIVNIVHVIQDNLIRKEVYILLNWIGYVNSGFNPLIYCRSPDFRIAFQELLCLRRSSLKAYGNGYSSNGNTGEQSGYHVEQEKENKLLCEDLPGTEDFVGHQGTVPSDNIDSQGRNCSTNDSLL

Turning to `Cc1ccc(-c2nc(N3CCN(C)CC3)c3ccccc3n2)cc1`, the AC50 in test [1] is 41.3 µM (active); with Vero, 26.8 µM (active).
In the case of `Clc1cccc(-c2nnc(SCc3nc4ccccc4[nH]3)n2Cc2ccco2)c1`, the IC50 in test [2] was 22.4 µM (not active); at Insulin-degrading enzyme, 2.57 µM (active). Also, the figures for the EC50 in test [3] and in test [4] were 10.1 µM (inactive) and 8.09 µM (active), respectively.

For orientation: AC50 means the midpoint of the concentration-response curve, whichever way the signal moves. For orientation: IC50 means the concentration needed to halve the response being measured. A word on the EC50: it is the midpoint of the concentration-response curve.

Source of the values: ChEMBL document CHEMBL1201862, “PubChem BioAssay data set” (2004).
